Laboratory results published in patent publication EP4650353A1 (Shanghai Institute of Materia Medica, Chinese Academy of …, priority 2023, dated 2024).
Read-outs that look alike come from different tables or passages of the source.

Columns and labels:
hERG potassium channels = hERG potassium channels (Homo sapiens, UniProt Q12809); experiment: cell-based
Experimental: CHO cells expressing hERG protein were cultured in 175 cm^2 culture flasks. When the cell density grew to 60-80%, the culture medium was removed, the cells were washed once with 7 mL PBS, and then 3 mL Detachin was added for digestion. After digestion was complete, 7 mL of culture medium was added to neutralize, then centrifuged. The supernatant was aspirated, and 5 mL of culture medium was added to resuspend to ensure that the cell density is 2-5×10^6/mL.
Both the single-cell high-impedance sealing and whole-cell mode formation processes were automatically completed by the Qpatch instrument. After obtaining the whole-cell recording mode, the cell was clamped at -80 mV. Before a 5-second +20 mV depolarizing stimulus was given, a 50-ms -50 mV pre-voltage was given, and then the cell was repolarized to -50 mV for 5 seconds and then returned to -80 mV. This voltage stimulation was applied every 15 seconds. After recording for 2 minutes, the extracellular solution was recorded for 2 minutes. Then the drug administration process began. The compound concentration started from the lowest tested concentration. Each tested concentration was given for 2 minutes. […] At least three cells were tested for each concentration (n≥3).
The compound stock solution was diluted with extracellular fluid, 5 µL of 20 mM compound stock solution was added to 2495 µL extracellular fluid, diluted 500 times to 40 µM, and then serially diluted 3 times in extracellular fluid containing 0.2% DMSO (v/v) to obtain the final concentration to be tested.
The experimental data were analyzed by XLFit software.

human GLP-1 receptor = target: T1, human GLP-1 receptor (Homo sapiens, UniProt P43220); experiment: GLP-1 receptor-mediated agonist activity: cAMP level in hGLP-1R/HEK293 cell line (HTRF); assay type: cell-based
T1 construct: HA (N); expressed in transfected cells
Experimental: The hGLP-1R/HEK293 cells were digested, centrifuged and resuspended in culture medium (DMEM+0.2% BSA, m/v), and the cell density was adjusted to 2×10^5 cells/mL. IBMX (3-isobutyl-1-methylxanthine, final concentration of 0.5 mM) was added to the cell suspension and added to a 384-well plate at 5 µL (1×10^3 cells)/well. The compound was dissolved in DMSO to prepare a stock solution with a concentration of 10 mM. The experiment started with a concentration of 100 µM which was diluted 10 times in a series of 7 dilution points, with the 8th point being DMSO. 2 µL of the test compound of different concentrations was added to 98 µL of culture medium, shaken and mixed, 5 µL was taken and added to a 384-well plate (final concentration of the test compound was 0-100 nM, final concentration of DMSO was 1%, v/v), which was then incubated in the incubator (37°C, 5% CO2) in the dark for 30 min, then 10 µL of cAMP detection reagent (LANCE Ultra cAMP Detecion Kit, PerkinElmer, #TRF0264) was added, mixed well, and reacted at room temperature in the dark for 1 h. After the reaction was completed, the HTRF signal was read using the Envision 2104 multi-function microplate reader. All samples were tested in triplicate wells, and the ratio of the acceptor-donor excitation signal in each single well was calculated using the formula Ratio = Signal 665nM/Signal 620nM. The HTRF signal ratio and the corresponding compound concentration were analyzed and processed using GraphPad Prism 8 software, and the EC50 value of the compound was obtained by fitting the S-type dose-response curve and calculating.

[1] = cAMP levels in hGLP-1R/HEK293 cell line, Table 1, read-out: determined EC50

hERG potassium channels, sequence (Q12809 whole entry): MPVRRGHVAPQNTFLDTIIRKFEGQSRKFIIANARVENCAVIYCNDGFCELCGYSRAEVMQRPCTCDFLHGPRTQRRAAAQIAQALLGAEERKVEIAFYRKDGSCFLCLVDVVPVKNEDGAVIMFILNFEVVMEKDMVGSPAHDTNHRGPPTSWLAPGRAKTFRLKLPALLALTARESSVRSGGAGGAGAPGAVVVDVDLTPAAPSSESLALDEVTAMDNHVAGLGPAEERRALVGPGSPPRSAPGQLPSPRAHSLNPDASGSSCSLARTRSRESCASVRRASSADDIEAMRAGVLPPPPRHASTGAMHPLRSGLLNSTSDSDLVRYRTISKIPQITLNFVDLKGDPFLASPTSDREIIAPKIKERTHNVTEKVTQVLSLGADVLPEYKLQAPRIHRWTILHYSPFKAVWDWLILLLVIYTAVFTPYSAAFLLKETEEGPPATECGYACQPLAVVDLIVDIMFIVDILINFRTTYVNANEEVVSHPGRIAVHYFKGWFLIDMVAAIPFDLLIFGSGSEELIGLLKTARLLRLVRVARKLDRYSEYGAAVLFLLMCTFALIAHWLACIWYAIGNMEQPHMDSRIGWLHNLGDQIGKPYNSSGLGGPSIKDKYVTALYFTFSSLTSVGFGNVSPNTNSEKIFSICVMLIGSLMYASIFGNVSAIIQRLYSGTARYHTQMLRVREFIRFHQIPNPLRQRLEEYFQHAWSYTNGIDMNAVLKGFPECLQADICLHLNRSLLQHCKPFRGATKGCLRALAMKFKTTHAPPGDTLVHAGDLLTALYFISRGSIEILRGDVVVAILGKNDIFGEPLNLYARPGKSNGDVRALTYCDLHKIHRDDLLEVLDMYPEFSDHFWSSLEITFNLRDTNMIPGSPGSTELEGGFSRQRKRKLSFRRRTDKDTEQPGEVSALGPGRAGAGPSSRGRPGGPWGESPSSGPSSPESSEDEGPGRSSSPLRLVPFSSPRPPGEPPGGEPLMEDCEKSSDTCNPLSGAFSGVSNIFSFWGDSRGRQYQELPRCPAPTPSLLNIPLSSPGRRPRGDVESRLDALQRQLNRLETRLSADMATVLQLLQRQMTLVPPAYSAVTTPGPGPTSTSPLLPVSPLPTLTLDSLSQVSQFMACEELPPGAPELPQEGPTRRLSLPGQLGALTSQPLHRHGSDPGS
T1 sequence (P43220 24-463): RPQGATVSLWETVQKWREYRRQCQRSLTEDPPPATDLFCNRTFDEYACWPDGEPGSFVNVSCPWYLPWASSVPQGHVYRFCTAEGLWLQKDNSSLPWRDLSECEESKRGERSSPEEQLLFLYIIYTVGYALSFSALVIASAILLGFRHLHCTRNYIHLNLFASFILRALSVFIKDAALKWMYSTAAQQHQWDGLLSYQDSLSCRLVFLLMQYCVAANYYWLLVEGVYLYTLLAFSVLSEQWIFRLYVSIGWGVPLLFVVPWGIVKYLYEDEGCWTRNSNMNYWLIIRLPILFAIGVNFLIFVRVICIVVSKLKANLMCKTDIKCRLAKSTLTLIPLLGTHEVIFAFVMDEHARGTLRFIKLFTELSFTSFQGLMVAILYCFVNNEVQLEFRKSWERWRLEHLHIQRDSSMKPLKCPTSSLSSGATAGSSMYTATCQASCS

EC50 (human GLP-1 receptor; [1]) | EC50 (human GLP-1 receptor; cAMP levels of the hGLP-1R/HEK293 cell line, Table 2, comparison with reference compounds, read-out: EC50) | Structure (SMILES) | IC50 (hERG potassium channels)
8.4 pM |  | CCOc1cc(C(=O)O)cc2c1nc(CN1CCN(c3cccc4c3OC(C)(c3ccc(C(F)(F)F)cc3F)O4)C=N1)n2C[C@@H]1CCO1 (stereo partly drawn) [Compound 81, 4-ethoxy-2-((4-(2-(2-fluoro-4-(trifluoromethyl)phenyl)-2-methylbenzo[d][1,3]dioxol-4-yl)-5,6-dihydro-1,2,4-triazin-1(4H)-yl)methyl)-1-(((S)-oxetan-2-yl)methyl)-1H-benzo[d]imidazole-6-carboxylic acid] | > 40 µM
1.2 pM |  | CCOc1cc(C(=O)O)cc2c1nc(CN1CCN(c3cccc(OCc4ccc(C#N)cc4F)n3)C=N1)n2C[C@@H]1CCO1 [Compound 9, (S)-2-((4-(6-((4-cyano-2-fluorobenzyl)oxy)pyridin-2-yl)-5,6-dihydro-1,2,4-triazin-1(4H)-yl)methyl)-4-ethoxy-1-(oxetan-2-ylmethyl)-1H-benzo[d]imidazole-6-carboxylic acid] | > 40 µM
14.1 pM |  | [2H]C([2H])([2H])Oc1cc(C(=O)O)cc2c1nc(CN1CCC(c3cccc4c3OC(C)(c3ccc(C(F)(F)F)cn3)O4)CC1)n2C[C@@H]1CCO1 (stereo partly drawn) [Compound 67, 4-(methoxy-d3)-2-((4-(2-methyl-2-(5-(trifluoromethyl)pyridin-2-yl)benzo[d][1,3]dioxol-4-yl)piperidin-1-yl)methyl)-1-(((S)-oxetan-2-yl)methyl)-1H-benzo[d]imidazole-6-carboxylic acid] | > 40 µM
10.3 pM |  | [2H]C([2H])([2H])Oc1cc(C(=O)O)cc2c1nc(CN1CCC(c3cccc4c3OC(C)(c3ccc(Cl)cn3)O4)CC1)n2C[C@@H]1CCO1 (stereo partly drawn) [Compound 61, 2-((4-(2-(5-chloropyridin-2-yl)-2-methylbenzo[d][1,3]dioxol-4-yl)piperidin-1-yl)methyl)-4-(methoxy-d3)-1-(((S)-oxetan-2-yl)methyl)-1H-benzo[d]imidazole-6-carboxylic acid] | > 40 µM
15.2 pM |  | COc1cc(C(=O)O)cc2c1nc(CN1CCN(c3cccc4c3OC(C)(c3ccc(Cl)cc3F)O4)C=N1)n2C[C@@H]1CCO1 (stereo partly drawn) [Compound 63, 2-((4-(2-(4-chloro-2-fluorophenyl)-2-methylbenzo[d][1,3]dioxol-4-yl)-5,6-dihydro-1,2,4-triazin-1(4H)-yl)methyl)-4-methoxy-1-(((S)-oxetan-2-yl)methyl)-1H-benzo[d]imidazole-6-carboxylic acid] | > 40 µM
13.1 pM |  | [2H]C([2H])([2H])C([2H])([2H])Oc1cc(C(=O)O)cc2c1nc(CN1CCN(c3cccc4c3OC(C)(c3ccc(C(F)(F)F)cc3F)O4)C=N1)n2C[C@@H]1CCO1 (stereo partly drawn) [Compound 82] | > 40 µM
4.5 pM |  | [2H]C([2H])([2H])C([2H])([2H])Oc1cc(C(=O)O)cc2c1nc(CN1CCN(c3cccc4c3OC(C)(c3ccc(Cl)cc3F)O4)C=N1)n2C[C@@H]1CCO1 (stereo partly drawn) [Compound 76, 2-((4-(2-(4-chloro-2-fluorophenyl)-2-methylbenzo[d][1,3]dioxol-4-yl)-5,6-dihydro-1,2,4-triazin-1(4H)-yl)methyl)-4-(ethoxy-d5)-1-(((S)-oxetan-2-yl)methyl)-1H-benzo[d]imidazole-6-carboxylic acid] | > 40 µM
4.7 pM |  | COc1cc(C(=O)O)cc2c1nc(CN1CCN(c3cccc(OCc4ccc(Cl)cc4F)n3)C=N1)n2C[C@@H]1CCO1 [Compound 17, (S)-2-((4-(6-((4-chloro-2-fluorobenzyl)oxy)pyridin-2-yl)-5,6-dihydro-1,2,4-triazin-1(4H)-yl)methyl)-4-methoxy-1-(oxetan-2-ylmethyl)-1H-benzo[d]imidazole-6-carboxylic acid] | > 40 µM
8.4 pM |  | [2H]C([2H])([2H])C([2H])([2H])Oc1cc(C(=O)O)cc2c1nc(CN1CCN(c3cccc4c3OC(C)(c3ccc(Cl)cn3)O4)C=N1)n2C[C@@H]1CCO1 (stereo partly drawn) [Compound 73, 2-((4-(2-(5-chloropyridin-2-yl)-2-methylbenzo[d][1,3]dioxol-4-yl)-5,6-dihydro-1,2,4-triazin-1(4H)-yl)methyl)-4-(ethoxy-d5)-1-(((S)-oxetan-2-yl)methyl)-1H-benzo[d]imidazole-6-carboxylic acid] | > 40 µM
27.3 pM |  | [2H]C([2H])([2H])Oc1cc(C(=O)O)cc2c1nc(CN1CCN(c3cccc4c3OC(C)(c3ccc(Cl)cn3)O4)C=N1)n2C[C@@H]1CCO1 (stereo partly drawn) [Compound 70, 2-((4-(2-(5-chloropyridin-2-yl)-2-methylbenzo[d][1,3]dioxol-4-yl)-5,6-dihydro-1,2,4-triazin-1(4H)-yl)methyl)-4-(methoxy-d3)-1-(((S)-oxetan-2-yl)methyl)-1H-benzo[d]imidazole-6-carboxylic acid] | 
1.5 pM |  | COc1cc(C(F)(F)F)ccc1COc1cccc(N2C=NN(Cc3nc4c(OC)cc(C(=O)O)cc4n3C[C@@H]3CCO3)CC2)n1 [Compound 23, (S)-4-methoxy-2-((4-(6-((2-methoxy-4-(trifluoromethyl)benzyl)oxy)pyridin-2-yl)-5,6-dihydro-1,2,4-triazin-1(4H)-yl)methyl)-1-(oxetan-2-ylmethyl)-1H-benzo[d]imidazole-6-carboxylic acid] | > 40 µM
6.7 pM |  | CCOc1cc(C(=O)O)cc2c1nc(CN1CCC(c3cccc4c3OC(C)(c3ccc(Cl)cc3F)O4)CC1)n2C[C@@H]1CCO1 (stereo partly drawn) [Compound 37, 2-((4-(2-(4-chloro-2-fluorophenyl)-2-methylbenzo[d][1,3]dioxol-4-yl)piperidin-1-yl)methyl)-4-ethoxy-1-(((S)-oxetan-2-yl)methyl)-1H-benzo[d]imidazole-6-carboxylic acid] | 
1.6 pM |  | COc1cc(C(F)(F)F)ccc1COc1cccc(C2CCN(Cc3nc4c(OC)cc(C(=O)O)cc4n3C[C@@H]3CCO3)CC2)n1 [Compound 51, (S)-4-methoxy-2-((4-(6-((2-methoxy-4-(trifluoromethyl)benzyl)oxy)pyridin-2-yl)piperidin-1-yl)methyl)-1-(oxetan-2-ylmethyl)-1H-benzo[d]imidazole-6-carboxylic acid] | 
2.6 pM |  | CCOc1cc(C(=O)O)cc2c1nc(CN1CCC(c3cccc4c3OC(C)(c3ccc(C(F)(F)F)cc3OC)O4)CC1)n2C[C@@H]1CCO1 (stereo partly drawn) [Compound 60] | 
8.2 pM |  | COc1cc(C(=O)O)cc2c1nc(CN1CCC(c3cccnc3OCc3ccc(C#N)c4c3OCC4)CC1)n2C[C@@H]1CCO1 [Compound 35, (S)-2-((4-(2-((4-cyano-2,3-dihydrobenzofuran-7-yl)methoxy)pyridin-3-yl)piperidin-1-yl)methyl)-4-methoxy-1-(oxetan-2-ylmethyl)-1H-benzo[d]imidazole-6-carboxylic acid] | 
 | 28.9 pM | O=C(O)c1ccc2nc(CN3CCN(c4cccc(OCc5ccc(Cl)cc5F)n4)CC3)n(C[C@@H]3CCO3)c2c1 [WO2018109607 , Example 10A-08, reference compound] | 
11.8 pM |  | O=C(O)c1cc(OC2CC2)c2nc(CN3CCN(c4cccc(OCc5ccc(Cl)cc5F)n4)C=N3)n(C[C@@H]3CCO3)c2c1 [Compound 25, (S)-2-((4-(6-((4-chloro-2-fluorobenzyl)oxy)pyridin-2-yl)-5,6-dihydro-1,2,4-triazin-1(4H)-yl)methyl)-4-cyclopropyloxy-1-(oxetan-2-ylmethyl)-1H-benzo[d]imidazole-6-carboxylic acid] | 
4.9 pM |  | CCCOc1cc(C(=O)O)cc2c1nc(CN1CCN(c3cccc(OCc4ccc(C#N)cc4F)n3)C=N1)n2C[C@@H]1CCO1 [Compound 10, (S)-2-((4-(6-((4-cyano-2-fluorobenzyl)oxy)pyridin-2-yl)-5,6-dihydro-1,2,4-triazin-1(4H)-yl)methyl)-1-(oxetan-2-ylmethyl)-4-propoxy-1H-benzo[d]imidazole-6-carboxylic acid] | 
2.2 pM |  | CCOc1cc(C(=O)O)cc2c1nc(CN1CCC(c3cccc4c3OC(C)(c3ccc(Cl)cc3OC)O4)CC1)n2C[C@@H]1CCO1 (stereo partly drawn) [Compound 58, 2-((4-(2-(4-chloro-2-methoxyphenyl)-2-methylbenzo[d][1,3]dioxol-4-yl)piperidin-1-yl)methyl)-4-ethoxy-1-(((S)-oxetan-2-yl)methyl)-1H-benzo[d]imidazole-6-carboxylic acid] | 
4 pM |  | [2H]C([2H])([2H])Oc1cc(C(=O)O)cc2c1nc(CN1CCN(c3cccc(OCc4ccc(C#N)cc4F)n3)C=N1)n2C[C@@H]1CCO1 [Compound 12, (S)-2-((4-(6-((4-cyano-2-fluorobenzyl)oxy)pyridin-2-yl)-5,6-dihydro-1,2,4-triazin-1(4H)-yl)methyl)-4-(methoxy-d3)-1-(oxetan-2-ylmethyl)-1H-benzo[d]imidazole-6-carboxylic acid] | 
